Structures can show the parent of a compound that is named as a salt. Where two headings read alike, the source gives them in different places.
Tests used:
[1] = tested on: VEGF; assay: VEGF ELISA Assay in HEK293 cells; format: cell-based; settings: Homo sapiens
Protocol: HEK293 cells are seeded in 96-well poly-lysine coated plates at 20,000 cells per well in DMEM (10% FBS, 1% NEAA, 0.1% glutamine). Following overnight incubation, the cells are washed with 100 μL of Opti-MEM (Gibco, Carlsbad, Calif.) to remove serum. Compound in DMSO is serially diluted (beginning with 100 μM) in Opti-MEM and added to the cells. The conditioned media is analyzed for VEGF with a Quantikine human VEGF immunoassay kit (R&D Systems, Minneapolis, Minn.). Optical density measurements at 450 nm are recorded using the Spectra Max 250 (Molecular Devices, Sunnyvale, Calif.). Data defined as % of DFO stimulation is used to calculate EC50 values with GraphPad Prism 4 software (San Diego, Calif.).

[2] = Solubility of salts in distilled deionized water (HPLC); format: physicochemical
Protocol: The formulator can determine the solubility of the pharmaceutically acceptable salts of the disclosed inhibitors by any method desirable. The following is a non-limiting example of a procedure for evaluating the solubility of a salt of a disclosed inhibitor. A suspension of tert-butyl-{[1-(4-chlorobenzyl)-3-hydroxy-2-oxo-1,2-dihydropyridin-4-yl]methyl}-piperazine-1-carboxylate methanesulfonate (26.6 mg) in distilled deionized water (3.0 mL) is sonicated for 20 min with water bath temperature under 25° C. The suspension is filtered to remove any insoluble salt. The clear filtrate solution (200 μL) is diluted with distilled deionized water (800 μL) and subjected to HPLC analysis. The following are results for the pharmaceutically acceptable salts outlined in Table VII above.

[3] = tested on: S. aureus; settings: murine model of S. aureus skin infection; cited from earlier work
[4] = tested on: Staphylococcus aureus; settings: dose-dependent; cited from earlier work
[5] = tested on: phosphoglycerate kinase (PGK) expression; assay: PGK expression in murine embryonic fibroblasts; format: cell-based; settings: wild type murine embryonic fibroblasts, 1 μM and 10 μM (FIG. 12)
Protocol: FIG. 11 depicts the up regulation of phosphoglycerate kinase (PGK) expression in wild type murine embryonic fibroblasts as a result of treatment with compound a compound disclosed in Table VIII at dosages of 1 μM (E), 10 μM (F), and 50 μM (G) vs. wild type control (H) and the lack of up regulation of PGK expression in HIF-1 knock out cells as a result of treatment with a compound disclosed in Table VIII at dosages of 1 μM (A), 10 μM (B), and 50 μM (C) and HIF-1 knock out control (D). Both cell types were treated for 7 hours.

[6] = tested on: EPO; assay: Mouse Serum EPO Assay; format: in vivo
Protocol: All animal work is conducted in accordance with the Guide for the Care and Use of Laboratory Animals (National Academy of Sciences; Copyright © 1996). Used in these experiments were 9-10 week old male C57Bl/6 mice from Charles River Laboratory (Portage, Mich.). The mice are orally dosed with vehicle (aqueous carbonate buffer, 50 mM; pH 9.0) or with the compound to be tested in vehicle at 50 mg/kg or 100 mg/kg. The animals are dosed three times: day 1 at 8 AM and 5 PM, and on day 2 at 8 AM. One hour after the first dose, unilateral arterial ligation is performed under anesthesia using isoflurane. The femoral artery is ligated proximal to the origin of the popliteal artery. The contralateral limb undergoes a sham surgical procedure. Ligation is performed in an alternating fashion between right and left hindlimbs. Two hours after the 8 AM dosing on day 2, blood is obtained by ventricular stick while the mice are anesthetized with isoflurane. Serum samples for EPO analysis are obtained using gel clot serum separation tubes. Heart, liver, and gastrocnemius muscles are harvested, snap-frozen in liquid nitrogen, and stored in −80° C. until use.
The mouse serum EPO is detected using Mouse Quantikine Erythropoietin ELISA kit from R&D Systems according to manufacturer's instructions.

[7] = HEK293 cells, head prints IC50, method calculates EC50 from % of DFO stimulation, read-out: VEGF IC50

Row | Compound | IC50 [1, 7] | further results
1 | CC1CCC(NCc2ccn(Cc3ccccc3)c(=O)c2O)CC1 (centres unmarked) [Compound C17, 1-benzyl-3-hydroxy-4-[(4-methylcyclohexylamino)methyl]pyridin-2(1H)-one] | 27.4 µM | –
2 | O=c1c(O)c(CN2CCN(Cc3ccccc3)CC2)ccn1Cc1ccccc1 [Compound B9, 1-benzyl-3-hydroxy-4-[(4-benzyipiperazin-1-yl)methyl]pyridin-2(1H)-one] | 12.6 µM | –
3 | Cc1ccc(S(=O)(=O)n2ccc(CN3CCN(c4ccc(Cl)nn4)CC3)c(O)c2=O)cc1 [Compound D14, 1-[(4-methylphenyl)sulfonyl]-3-hydroxy-4-{[4-(6-chloropyridazin-3-yl)piperazin-1-yl]methyl}pyridin-2(1H)-one] | 19 µM | –
4 | CC(C)(C)OC(=O)N1CCN(Cc2ccn(Cc3ccc(Cl)cc3)c(=O)c2O)CC1 [p-toluenesulfonate, tert-butyl-{[1-(4-chlorobenzyl)-3-hydroxy-2-oxo-1,2-dihydropyridin-4-yl]methyl}-piperazine-1-carboxylate] | – | Solubility [2]: 2300 µg/mL
5 | COc1ccccc1Cn1ccc(CN2CCCCCC2)c(O)c1=O [Compound A18, 1-(2-methoxybenzyl)-3-hydroxy-4-(azepan-1-ylmethyl)pyridin-2(1H)-one] | 29.2 µM | –
6 | COC[C@H]1CCCN1Cc1ccn(Cc2ccccc2)c(=O)c1O [Compound B5, (R)-1-benzyl-3-hydroxy-4-{[2-(methoxymethyl)pyrrolidin-1-yl]methyl}pyridin-2(1H)-one] | 53 µM | –
7 | CC(C)(C)OC(=O)N1CCN(Cc2ccn(Cc3ccc(Cl)cc3)c(=O)c2O)CC1 [Compound A41, tert-butyl 4-{[1-(4-chlorobenzyl)-3-hydroxy-2-oxo-1,2-dihydropyridin-4-yl]methyl}piperazine-1-carboxylate] | – | Solubility ([2]; distilled deionized water, sonicated 20 min, under 25° C., listed as Free base): ~1 µg/mL; IC50 ([1]; HEK293, read-out: VEGF IC50 (μM)): 16.6 µM
8 | NC(Cn1ccc(=O)c(O)c1)C(=O)O (centres unmarked) [mimosine] | – | lesion size [3]: reduce the lesion size; capacity of human phagocytes and whole blood to kill Staphylococcus aureus [4]: boost
9 | CC(C)(C)OC(=O)N1CCN(Cc2ccn(Cc3ccc(Cl)cc3)c(=O)c2O)CC1 [hydrochloride, tert-butyl-{[1-(4-chlorobenzyl)-3-hydroxy-2-oxo-1,2-dihydropyridin-4-yl]methyl}-piperazine-1-carboxylate] | – | Solubility [2]: 5900 µg/mL
10 | Cc1ccc(S(=O)(=O)n2ccc(CN3CCC(N4CCCCC4)CC3)c(O)c2=O)cc1 [Compound D10, 1-[(4-methylphenyl)sulfonyl]-3-hydroxy-4-(1,4′-bipiperidin-1′-ylmethyl)pyridin-2(1H)-one] | 27 µM | –
11 | O=c1c(O)c(CN2CCN(c3ccc(Cl)nn3)CC2)ccn1Cc1ccccc1 [Compound B14, 1-benzyl-3-hydroxy-4-{[4-(6-chloropyridazin-3-yl)piperazin-1-yl]methyl}pyridin-2(1H)-one] | 78 µM | –
12 | O=c1c(O)cccn1Cc1ccc(Cl)cc1 [Compound F3, 1-(4-chlorobenzyl)-3-hydroxypyridin-2(1H)-one] | 7.4 µM | –
13 | O=c1c(O)cccn1Cc1cccc(Cl)c1 [Compound F2, 1-(3-chlorobenzyl)-3-hydroxypyridin-2(1H)-one] | > 100 µM | PGK expression [5]: up regulation; EC50 [6]: 14 µM
14 | O=c1c(O)c(CNCc2ccccc2)ccn1Cc1ccc(Cl)cc1 [Compound C1, 1-(4-chlorobenzyl)-3-hydroxy-4-[(4-benzylamino)methyl]pyridin-2(1H)-one] | 42 µM | –
15 | O=C1NCCCCC1NCc1ccn(Cc2ccccc2)c(=O)c1O (centres unmarked) [Compound C19, 3-[(1-benzyl-3-hydroxy-2-oxo-1,2-dihydropyridin-4-yl)methylamino]azepan-2-one] | 62.9 µM | –
16 | CSCCNCc1ccn(Cc2ccccc2)c(=O)c1O [Compound C33, 1-benzyl-3-hydroxy-4-{[2-(methylthio)ethylamino]methyl}pyridin-2(1H)-one] | 53 µM | –

Source: patent US10562854B2, “Prolyl hydroxylase inhibitors” (Aerpio Therapeutics, Inc., priority 2009, dated 2020)
